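Protocol summary: plate cells (96-well), add compound at 5 concentrations, incubate 48 h, interpolate endpoints linearly. GI50 is the concentration that inhibits growth by half.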 Active and inactive are the calls of the source. Rule as the data show it: active = GI50 up to about 1.1 µM and inactive = higher. Some results are limits rather than exact numbers.

Among the test systems are HOP-18; M19-MEL; SNB-78; KM-20L2; LXFL 529; XF498; DMS-273; DLD-1; DMS-114.
What all share (experiment): growth of human tumour cells (NCI), 48 h

As for `O=C1CCCC[C@H]1[C@H]1CCC[C@@H]([C@H]2CCCCC2=O)C1=O`, the GI50 in the test with HOP-18 was > 100 µM (inactive); in the test on M19-MEL it was > 100 µM (inactive); with SNB-78, 3.44 µM (inactive); in the test on KM-20L2 it was > 100 µM (inactive); in the test on LXFL 529, > 100 µM (inactive); in the test on XF498, > 100 µM (inactive). Besides, the GI50 in the test with DMS-273 and in the test on DLD-1 was > 100 µM (inactive) throughout.
Take `Cc1ccc(S(=O)(=O)CNC(=S)CCCC(=S)NCS(=O)(=O)c2ccc(C)cc2)cc1`: the GI50 in the test on M19-MEL was > 100 µM (inactive); with SNB-78 it was 78.9 µM (inactive); with KM-20L2 it was > 100 µM (inactive); with LXFL 529, 44.9 µM (inactive); in the test with XF498, > 100 µM (inactive); in the test with DMS-273 it was 44.2 µM (inactive). The GI50 with DLD-1 was > 100 µM (inactive).
With `COc1cccc2c1C(=O)c1c(O)c3c(c(O)c1C2=O)CC(O)(C(C)=O)CC3OC1CC([N+](C)(C)C)C(O)C(C)O1` (stereo not given), the GI50 with HOP-18 was > 100 µM (inactive); in the test on M19-MEL, 70.6 µM (inactive); with SNB-78 it was > 100 µM (inactive); in the test with KM-20L2 it was > 100 µM (inactive); with LXFL 529, 64.9 µM (inactive); in the test with XF498, 10.7 µM (inactive). Further, the GI50 in the test with DMS-114 is > 100 µM (inactive); in the test on DMS-273, 27.5 µM (inactive); with DLD-1, 91.2 µM (inactive).
For `COc1cc(C(=C2SCCS2)c2nccc3cc(OC)c(OC)cc23)c([N+](=O)[O-])cc1OC`, the GI50 in the test on HOP-18 was > 100 µM (inactive); in the test with M19-MEL, 72.9 µM (inactive); in the test with SNB-78, 18 µM (inactive); in the test with KM-20L2 it was 51.1 µM (inactive); with LXFL 529, 18.5 µM (inactive); in the test with XF498 it was 17.9 µM (inactive). Moreover, the GI50 was 41.6 µM (inactive) in the test with DMS-114, 34.4 µM (inactive) in the test with DMS-273 and > 100 µM (inactive) in the test on DLD-1.
As for `COC(=O)N/N=C/C(=C/Nc1ccccc1)[N+](=O)[O-]`, the GI50 in the test on HOP-18, in the test with M19-MEL, in the test with KM-20L2, with LXFL 529, in the test on XF498 and in the test on DMS-114 was > 100 µM (inactive) each time. In addition, the GI50 in the test with DMS-273 and with DLD-1 was > 100 µM (inactive) throughout.
Consider `Nc1nc(CCc2n[nH]c(N)n2)n[nH]1`, for which the GI50 in the test on M19-MEL, with SNB-78, in the test with KM-20L2, in the test on LXFL 529, with DMS-114 and in the test with DMS-273 was > 100 µM (inactive) throughout. The GI50 in the test on DLD-1 is > 100 µM (inactive).
For `C/C(=N\NC(N)=S)C(CN(CC(C)C)CC(C)C)C(=O)Nc1ccc(C)cc1C` (stereo not given), the GI50 with HOP-18, in the test with M19-MEL, with SNB-78, in the test on KM-20L2, in the test with LXFL 529 and in the test with XF498 was > 100 µM (inactive) each time. In addition, the GI50 in the test with DMS-114, with DMS-273 and in the test with DLD-1 was > 100 µM (inactive) each time.
On to `CC(=O)NC1C(OCc2ccccc2)OC(COC(=O)CCCCCCCCCCNc2ccc([N+](=O)[O-])c3[nH]c4ccccc4c(=O)c23)C(O)C1OC(C)C(=O)NC(C)C(=O)NC(CCC(N)=O)C(=O)OCc1ccccc1` (stereo not given), for which the GI50 with HOP-18, with M19-MEL, with SNB-78, in the test on KM-20L2, with LXFL 529 and with XF498 was > 100 µM (inactive) throughout. Further, the GI50 in the test with DMS-114, in the test on DMS-273 and with DLD-1 was > 100 µM (inactive) in each case.
As for `Sc1ccccc1S`, the GI50 with HOP-18, in the test with M19-MEL, in the test on SNB-78, in the test on KM-20L2, in the test on LXFL 529 and in the test on XF498 was > 100 µM (inactive) in each case. The GI50 in the test on DMS-114, in the test with DMS-273 and with DLD-1 was > 100 µM (inactive) throughout.
For the molecule `Cc1ccccc1C1=[N+]([O-])c2ccc(Cl)cc2C1=O`, the GI50 in the test on HOP-18 is 14.1 µM (inactive); with M19-MEL, 8.05 µM (inactive); with KM-20L2 it was 4.51 µM (inactive); with LXFL 529 it was 12 µM (inactive); in the test on XF498, 4.39 µM (inactive); in the test on DLD-1, 7.41 µM (inactive).
Consider `N#C[C-](C#N)[n+]1ccc(Cl)cc1`, for which the GI50 in the test with M19-MEL is 12.4 µM (inactive); with SNB-78, 17.9 µM (inactive); in the test on KM-20L2, 24.2 µM (inactive); in the test with LXFL 529, 13.6 µM (inactive); with XF498 it was 19.3 µM (inactive); in the test on DMS-114, 13.4 µM (inactive). For the same molecule, the GI50 in the test with DMS-273 is 18.7 µM (inactive); in the test with DLD-1, 11.5 µM (inactive).
For the molecule `N=C(N)NS(=O)(=O)c1ccc(NCc2c3ccccc3nc3ccccc23)cc1`, the GI50 is 9.18 µM (inactive) with HOP-18; 10 µM (inactive) in the test on M19-MEL; 23.1 µM (inactive) with SNB-78; 57.9 µM (inactive) in the test with KM-20L2; 12.8 µM (inactive) with LXFL 529; 0.157 µM (active) in the test on DMS-114. Moreover, the GI50 with DMS-273 is 2.1 µM (inactive); with DLD-1, 23.5 µM (inactive).
With `CC1=C(C(=O)CC(=O)C(=O)Nc2cccc(Cl)c2C)Sc2ccccc2N1`, the GI50 in the test with HOP-18, in the test on M19-MEL, with SNB-78, in the test with LXFL 529, in the test on XF498 and in the test on DMS-114 was > 100 µM (inactive) each time. In the test with DLD-1, the GI50 is > 100 µM (inactive).
Take `Nc1ncnc2c1nc(Cl)n2[C@@H]1O[C@@H]2COP(=O)(O)O[C@H]2[C@H]1O` [TOCLADESINE]: the GI50 with HOP-18 was > 109 µM (inactive); in the test with M19-MEL, > 300 µM (inactive); in the test with SNB-78, 165 µM (inactive); in the test with KM-20L2 it was 13.5 µM (inactive); with DMS-114 it was 26.7 µM (inactive); in the test on DMS-273 it was 3.15 µM (inactive). The GI50 in the test on DLD-1 is 3.81 µM (inactive).
Take `CCCCCCCC(=O)OCC1OC(n2cc(F)c(=O)[nH]c2=O)C(N)C(O)C1O` (stereo not given): the GI50 with HOP-18, in the test on M19-MEL, with SNB-78, in the test with KM-20L2, in the test with LXFL 529 and in the test on DMS-114 was > 100 µM (inactive) in each case. Also, the GI50 with DMS-273 and in the test with DLD-1 was > 100 µM (inactive) each time.
Regarding `C[C@]12CC[C@H](OC3OC(CO)C(O)C(O)C3O)C[C@H]1CC[C@@H]1[C@@H]2CC[C@]2(C)[C@@H](C3=CCOC3=O)CC[C@]12O` (stereo not given in full) [ACTODIGIN], the GI50 in the test on HOP-18 was 50 µM (inactive); in the test on M19-MEL, 11.7 µM (inactive); in the test with SNB-78, 26.5 µM (inactive); in the test with KM-20L2, 3.55 µM (inactive); in the test with XF498, 1.44 µM (inactive); in the test with DMS-114, 10.2 µM (inactive). Besides, the figures for the GI50 in the test with DMS-273 and with DLD-1 were 1.97 µM (inactive) and 39.7 µM (inactive), respectively.
On to `Cc1c2cc[n+](C)cc2c(C)c2c1[nH]c1ccc(OC(C)(C)C)cc12`, for which the GI50 in the test with HOP-18, in the test on M19-MEL, with SNB-78, with LXFL 529, with DMS-114 and with DMS-273 was > 100 µM (inactive) throughout. For the same molecule, the GI50 in the test with DLD-1 is > 100 µM (inactive).
Regarding `C/C(=N\NC(=O)CC(=O)Nc1ccc(Cl)cc1)c1cc2ccccc2oc1=O`, the GI50 in the test on HOP-18, in the test on M19-MEL, in the test with KM-20L2, in the test on XF498, in the test on DMS-114 and in the test on DMS-273 was > 100 µM (inactive) each time. Moreover, the GI50 in the test on DLD-1 was > 100 µM (inactive).
As to `S=c1nc(N2CCCCC2)ss1`, the GI50 with HOP-18 was 40.6 µM (inactive); in the test on M19-MEL it was 18.2 µM (inactive); in the test with SNB-78, 32.2 µM (inactive); in the test on KM-20L2 it was > 100 µM (inactive); with LXFL 529 it was 15.1 µM (inactive); in the test with XF498, 20.1 µM (inactive). Also, the GI50 in the test with DMS-114 was 19.7 µM (inactive); in the test with DMS-273 it was 17.5 µM (inactive); with DLD-1 it was 26.7 µM (inactive).
In the case of `O=S(=O)(c1ccccc1)N1CCC1c1ccccc1` (stereo not given), the GI50 in the test with HOP-18 is 51.5 µM (inactive); with M19-MEL, > 100 µM (inactive); in the test with SNB-78, > 100 µM (inactive); with KM-20L2, > 100 µM (inactive); in the test with XF498, 51.9 µM (inactive); with DMS-114 it was 50.1 µM (inactive). The GI50 in the test on DMS-273 is > 100 µM (inactive).
For the molecule `CCCN(CCCCC(NC(C)=O)C(=O)NCc1ccccc1)C(=O)N(C)N=O` (stereo not given), the GI50 in the test on M19-MEL, in the test with SNB-78, with KM-20L2, in the test on LXFL 529, in the test on XF498 and in the test on DMS-114 was > 100 µM (inactive) in each case. Also, the GI50 in the test with DMS-273 and in the test with DLD-1 was > 100 µM (inactive) each time.

These data come from ChEMBL document CHEMBL1201862, “PubChem BioAssay data set” (2004).
